Laboratory results: patent US8129396B2, “2-[1H-benzimidazol-2(3H)-ylidene]-2-(pyrimidin-2-yl)acetamides and 2-[benzothiazol-2(3H)-ylidene]-2-(pyrimidin-2-yl)acetamides as kinase inhibitors” (Telik, Inc., priority 2008, dated 2012)
pIC50: −log10 of the molar value. Blank lines part the entries; values can stand above or below the compound they belong to.

How the values were obtained:
p-H3 in HCT116 cells = assay: Histone phosphorylation (p-H3) assay; type: cell-based; conditions: Homo sapiens, HCT-116; HCT116 cells, 4 hr incubation; read-out: p-H3 IC50
Procedure, shortened: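 HCT116 cells (2.5×10^4/well, attached overnight) treated 4 h with 8-point 3-fold compound dilutions at 0.5% DMSO. Lysates dot-blotted onto nitrocellulose and probed for p-H3 with β-actin on the same membrane, fluorescent secondary antibodies, Odyssey scan; duplicate wells.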

Aurora B kinase = target: T1, Aurora B kinase (Homo sapiens, UniProt Q96GD4); assay: Aurora B kinase assay (IMAP fluorescence polarization); type: biochemical; conditions: 10 μM ATP; rounded to 1 significant figure; read-out: Aur-B IC50
T1 construct: purchased BPS Bioscience
Procedure, shortened: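 Reaction started with 100 nM fluorescein-labelled PKAtide and 10 μM ATP, run 45 min at room temperature, then stopped with IMAP binding reagent (1:400). After 30 min shaking at room temperature, fluorescence polarization read; run in duplicate with solvent control.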

Aurora A kinase = target: T2, Aurora A kinase (Homo sapiens, UniProt O14965); assay: Aurora A kinase assay (IMAP fluorescence polarization); type: biochemical; conditions: 10 μM ATP; rounded to 1 significant figure; read-out: Aur-A IC50
T2 construct: purchased Upstate Biotech
T2 sequence (O14965 1-403): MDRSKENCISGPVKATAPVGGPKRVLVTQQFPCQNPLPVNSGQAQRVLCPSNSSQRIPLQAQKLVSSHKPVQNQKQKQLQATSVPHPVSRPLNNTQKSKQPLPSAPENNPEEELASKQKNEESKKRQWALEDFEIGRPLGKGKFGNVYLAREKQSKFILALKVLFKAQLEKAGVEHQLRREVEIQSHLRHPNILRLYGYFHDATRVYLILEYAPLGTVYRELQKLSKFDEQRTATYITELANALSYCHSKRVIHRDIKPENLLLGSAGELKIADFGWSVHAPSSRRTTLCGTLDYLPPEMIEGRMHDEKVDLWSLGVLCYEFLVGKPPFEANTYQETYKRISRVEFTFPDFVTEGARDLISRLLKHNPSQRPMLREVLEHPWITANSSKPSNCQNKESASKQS
Procedure, shortened: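 Compounds (eight 3-fold dilutions, 2.5% DMSO final) were preincubated 5 min at room temperature with Aurora A kinase in buffer with 1 mM DTT. Reaction with 100 nM fluorescein-PKAtide and 10 μM ATP ran 45 min at room temperature, then was stopped with IMAP binding reagent; fluorescence polarization was read after 30 min.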

[1] = system: HCT116 (human colon carcinoma) cells; assay: HCT116 cytotoxicity assay (CellTiter-Glo); type: cell-based; conditions: HCT-116, 72 h, cytotoxicity, three days culture, read-out: HCT116 IC50
VEGFR2 kinase = target: T3, VEGFR2 kinase (Homo sapiens, UniProt P35968); assay: VEGFR2 kinase assay; type: biochemical; conditions: 6 μM ATP, 1 mM MnCl2; rounded to 1 significant figure
T3 construct: purchased Cell Signaling Technology
Procedure, shortened: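 VEGFR2 phosphorylates CSKtide with 6 μM ATP and 1 mM MnCl2 for 1 hr, otherwise following the Aurora A kinase protocol. Detection by IMAP fluorescence polarization, binding reagent diluted 1:1200 in 1:1 binding buffer A/B. Run in duplicate with solvent control.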

[2] = system: HL60 (human promyelocytic leukemia) cells; assay: HL60 cytotoxicity assay (CellTiter-Glo); type: cell-based; conditions: HL-60, 72 h, cytotoxicity, three days culture, read-out: HL60 IC50
Description: The cell lines HL60 (human promyelocytic leukemia) and HCT116 (human colon carcinoma) were obtained from the American Type Culture Collection, Manassas, Va., U.S.A., and HUVEC-2 (human umbilical vein endothelial cells) from BD Biosciences, Bedford, Mass., U.S.A. Aurora A kinase was obtained from Upstate Biotech, Billerica, Mass., U.S.A.; Aurora B kinase from BPS Bioscience, San Diego, Calif., U.S.A.; and VEGFR2 kinase from Cell Signaling Technology, Danvers, Mass., U.S.A. The IMAP FP Screening Express kit was obtained from Molecular Devices, Sunnyvale, Calif., U.S.A.; the CellTiter-Glo assay kit from Promega Corporation, Madison, Wis., U.S.A.; and the Cellular DNA Cytometric Analysis Reagent Kit and BrdU labeling and detection kit from Roche Diagnostics Corporation, Indianapolis, Ind., U.S.A. All products were used in accordance with manufacturer's directions. Kinase inhibition assays and the histone phosphorylation (p-H3) assay were conducted in duplicate, and the cytotoxicity and HUVEC proliferation assays were conducted in triplicate, in each case with solvent control.
Log-phase cells were trypsinized, collected by centrifugation, and resuspended in a small volume of fresh medium, and the density of viable cells was determined following Trypan Blue staining. Cells were diluted in fresh media (1×10^4 cells/mL for HL60 and 4×10^4 cells/mL for HCT116 cells), the test compounds (concentrations between 0.1 μM and 200 μM, dissolved in DMSO, 50 μL) added immediately after dilution to achieve a final DMSO concentration of 0.5%, then the suspensions added at 150 μL/well to 96-well plates, and incubated overnight to allow attachment in the case of adherent cells. The cells were cultured for three days (about three doubling times). The cells were then collected by centrifugation, and 100 μL of the culture supernatant was replaced by the CellTiter-Glo reagent. After incubation for 15 minutes at room temperature, the plate was read with a luminometer.

T3 sequence (P35968 20-1356): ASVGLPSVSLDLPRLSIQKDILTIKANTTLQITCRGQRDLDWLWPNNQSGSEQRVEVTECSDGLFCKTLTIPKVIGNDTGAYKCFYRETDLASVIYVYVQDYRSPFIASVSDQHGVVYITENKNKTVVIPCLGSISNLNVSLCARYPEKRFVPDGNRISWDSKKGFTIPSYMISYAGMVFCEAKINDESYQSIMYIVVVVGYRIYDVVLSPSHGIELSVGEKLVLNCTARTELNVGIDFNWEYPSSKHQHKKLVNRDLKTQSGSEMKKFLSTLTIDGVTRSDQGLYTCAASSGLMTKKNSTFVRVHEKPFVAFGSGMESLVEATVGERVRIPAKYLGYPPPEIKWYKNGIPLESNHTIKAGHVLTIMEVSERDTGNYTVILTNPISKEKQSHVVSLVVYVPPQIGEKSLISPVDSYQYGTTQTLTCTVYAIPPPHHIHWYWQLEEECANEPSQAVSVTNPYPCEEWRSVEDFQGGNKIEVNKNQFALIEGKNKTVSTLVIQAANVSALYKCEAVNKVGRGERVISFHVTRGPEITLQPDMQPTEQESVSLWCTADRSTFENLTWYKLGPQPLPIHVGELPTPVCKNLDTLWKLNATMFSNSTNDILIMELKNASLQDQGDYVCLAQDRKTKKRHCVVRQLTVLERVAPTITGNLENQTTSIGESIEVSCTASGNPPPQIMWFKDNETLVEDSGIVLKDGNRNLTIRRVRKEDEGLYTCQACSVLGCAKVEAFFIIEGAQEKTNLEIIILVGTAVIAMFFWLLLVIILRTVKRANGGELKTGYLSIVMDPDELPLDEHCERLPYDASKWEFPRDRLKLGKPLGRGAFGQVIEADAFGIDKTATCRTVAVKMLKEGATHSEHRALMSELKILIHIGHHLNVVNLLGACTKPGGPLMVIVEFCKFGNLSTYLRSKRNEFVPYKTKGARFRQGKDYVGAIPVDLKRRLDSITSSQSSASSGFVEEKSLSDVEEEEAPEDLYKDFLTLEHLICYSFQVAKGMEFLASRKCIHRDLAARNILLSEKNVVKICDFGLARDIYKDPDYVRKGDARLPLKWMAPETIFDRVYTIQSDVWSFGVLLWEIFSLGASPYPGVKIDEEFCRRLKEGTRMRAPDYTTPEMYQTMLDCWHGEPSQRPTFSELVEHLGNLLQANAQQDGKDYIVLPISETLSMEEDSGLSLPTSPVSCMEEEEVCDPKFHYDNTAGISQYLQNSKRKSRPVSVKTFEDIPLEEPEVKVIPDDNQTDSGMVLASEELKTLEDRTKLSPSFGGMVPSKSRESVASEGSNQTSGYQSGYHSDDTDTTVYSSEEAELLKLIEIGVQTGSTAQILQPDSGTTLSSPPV
T1 sequence (Q96GD4 whole entry): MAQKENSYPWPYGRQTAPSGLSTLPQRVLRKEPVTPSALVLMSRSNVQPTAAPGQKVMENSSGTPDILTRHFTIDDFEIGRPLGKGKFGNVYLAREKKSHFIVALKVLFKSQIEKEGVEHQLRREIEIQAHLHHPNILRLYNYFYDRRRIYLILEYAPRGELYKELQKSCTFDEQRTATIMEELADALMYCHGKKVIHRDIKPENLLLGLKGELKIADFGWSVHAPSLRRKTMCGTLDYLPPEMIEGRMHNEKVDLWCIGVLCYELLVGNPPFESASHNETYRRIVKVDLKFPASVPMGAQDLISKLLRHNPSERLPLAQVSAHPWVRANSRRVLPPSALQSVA

SMILES: NC(=O)/C(=C1\Nc2cc(F)c(Cl)cc2N1)c1nccc(C(F)(F)F)n1 [Compound 37A]
pIC50 (p-H3 in HCT116 cells): 6.30
pIC50 (Aurora B kinase): 7.70
pIC50 (Aurora A kinase): 7.52
pIC50 [1]: 5.70
pIC50 (VEGFR2 kinase): 6.40
pIC50 [2]: 5.40

SMILES: NC(=O)/C(=C1\Nc2ccc(-c3cccnc3)cc2N1)c1nccc(C(F)(F)F)n1 [Compound 107A]
pIC50 (p-H3 in HCT116 cells): < 5.30
pIC50 (Aurora B kinase): 7.70
pIC50 (Aurora A kinase): 8.10
pIC50 [1]: 5.30
pIC50 (VEGFR2 kinase): 7.40
pIC50 [2]: 6.00

SMILES: NC(=O)/C(=C1\Nc2ccc(NC(=O)C3(N)CC3)cc2N1)c1nccc(C(F)(F)F)n1 [Compound 34A]
pIC50 (p-H3 in HCT116 cells): 6.40
pIC50 (Aurora B kinase): 8.22
pIC50 (Aurora A kinase): 8.30
pIC50 [1]: 6.22
pIC50 (VEGFR2 kinase): 8.00
pIC50 [2]: 6.70

SMILES: NC(=O)/C(=C1\Nc2ccc(-c3cccnc3)cc2S1)c1nccc(C(F)(F)F)n1 [Compound 108A]
pIC50 (p-H3 in HCT116 cells): 5.52
pIC50 (Aurora B kinase): 8.00
pIC50 (Aurora A kinase): 8.00
pIC50 [1]: 5.70
pIC50 (VEGFR2 kinase): 7.22
pIC50 [2]: 5.70

SMILES: NC(=O)/C(=C1\Nc2ccc(CCN3CCC(F)(F)CC3)cc2S1)c1nccc(C(F)(F)F)n1 [Compound 104A]
pIC50 (p-H3 in HCT116 cells): 5.70
pIC50 (Aurora B kinase): 8.00
pIC50 (Aurora A kinase): 7.52
pIC50 [1]: 5.52
pIC50 (VEGFR2 kinase): 7.22
pIC50 [2]: 6.00

SMILES: Cc1cc(C(F)(F)F)nc(/C(C(N)=O)=C2/Nc3ccccc3S2)n1 [Compound 8A]
pIC50 (p-H3 in HCT116 cells): 6.00
pIC50 (Aurora B kinase): 8.10
pIC50 (Aurora A kinase): 8.00
pIC50 [1]: 5.70
pIC50 (VEGFR2 kinase): 7.22
pIC50 [2]: 6.70

SMILES: NC(=O)C(=C1Nc2ccc(N)cc2S1)c1nccc(C(F)(F)F)n1 (single isomer, unassigned) [Compound 32A, 2-[6-aminobenzothiazol-2(3H)-ylidene]-2-(4-trifluoromethylpyrimidin-2-yl)acetamide]
pIC50 (p-H3 in HCT116 cells): 6.40
pIC50 (Aurora B kinase): 8.00
pIC50 (Aurora A kinase): 8.00
pIC50 [1]: 5.30
pIC50 (VEGFR2 kinase): 7.40
pIC50 [2]: 5.52

These reach a higher pIC50 (p-H3 in HCT116 cells). Values come first.

pIC50 (p-H3 in HCT116 cells): 7.00
pIC50 (Aurora B kinase): 8.22
pIC50 (Aurora A kinase): 8.15
pIC50 (VEGFR2 kinase): 7.40
SMILES: NC(=O)C(=C1Nc2ccccc2N1)c1nc(N)cc(C(F)(F)F)n1 [Compound 12A]
pIC50 [1]: 6.40
pIC50 [2]: 6.70

pIC50 (p-H3 in HCT116 cells): 7.00
pIC50 (Aurora B kinase): 8.30
pIC50 (Aurora A kinase): 8.52
SMILES: CCN(CCCn1ccnc1)C(=O)c1ccc2c(c1)S/C(=C(/C(N)=O)c1nccc(C(F)(F)F)n1)N2 [Compound 49A]
pIC50 [1]: 6.40
pIC50 [2]: 6.00

pIC50 (p-H3 in HCT116 cells): 6.70
pIC50 (Aurora B kinase): 8.00
pIC50 (Aurora A kinase): 8.22
pIC50 (VEGFR2 kinase): 7.40
SMILES: NC(=O)/C(=C1\Nc2ccc(C(=O)NCCCn3ccnc3)cc2S1)c1nccc(C(F)(F)F)n1 [Compound 46A]
pIC50 [1]: 6.40
pIC50 [2]: 6.70

pIC50 (p-H3 in HCT116 cells): 6.70
pIC50 (Aurora B kinase): 8.30
pIC50 (Aurora A kinase): 7.70
SMILES: CCN(C(=O)CN1CCCCC1)c1ccc2c(c1)N/C(=C(/C(N)=O)c1nccc(C(F)(F)F)n1)N2 [Compound 146A]
pIC50 [1]: 6.40
pIC50 [2]: 6.10
